Reference: patent US11072741B2, “Optically anisotropic layer, method for producing the optically anisotropic layer, a laminate, polarizing plate, display device, liquid crystal compound, method for producing the liquid crystal compound, and carboxylic acid compound” (FUJIFILM Corporation, priority 2014, dated 2021)

Assays:
[1] = Measurement and evaluation of solubility in MEK and CPN; format: physicochemical; parameters: key to Solubility Evaluation: A: solubility improved twofold or greater in plural solvents or a single solvent; B: solubility was the same or improved up to twofold in plural solvents or a single solvent; C: no improvement in solubility in plural solvents or a single solvent; conditions: for Solubility CPN wt %: cyclopentanone; for Solubility CPN wt % / Solubility MEK wt %: room temperature, visual observation, 5 wt % increments; for Solubility MEK wt %: methyl ethyl ketone; for Solubility Evaluation: versus comparative compound with the same Ar and side chain portion of Formula (Ia)
Method: Solubility measurements of the synthesized liquid crystal compounds were conducted by the following method. 50 mg of each compound was weighted into a 1.5 mL sample bottle, and solvent was added until the solid component became 40 wt % (75 mg). The solubility was determined to be 40 wt % if clear under visual observation after shaking well manually at room temperature. If undissolved residue was present, solvent was added such that the solid component became 35 wt % (+18 mg). The solubility was determined to be 35 wt % if clear under visual observation after shaking well manually at room temperature. If undissolved residue was present, solvent was added such that the solid component became 30 wt %. Similar operations were performed in increments of 5 wt %, and repeated until the solid component became 5 wt %. If undissolved residue was present, the solubility was determined to be less than 5 wt % (<5 wt %), and measurements were completed. MEK (methyl ethyl ketone) and CPN (cyclopentanone) were utilized as solvents for measuring solubility.
The measured values of solubility were evaluated. The evaluations were conducted by using solubility of a compound of a Comparative Example having Ar (the aromatic ring at the center of General Formula 1) in common with the Examples and a side chain portion represented by Formula (Ia) as a reference, in a manner similar to that in the evaluation of the phase transition temperature. Evaluations of A through C were assigned according to the degree of improvement in solubility from the reference solubility.
(§1) For example, compound (I-1) and (I-2) were compared to Comparative Compound (Ia-1), and Compound (III-3) was compared to Comparative Compound (IIIa-3). The evaluation was carried out based on the following criteria.
A: solubility improved twofold or greater in plural solvents or a single solvent
B: solubility was the same or improved up to twofold in plural solvents or a single solvent
C: no improvement in solubility in plural solvents or a single solvent

[2] = Evaluation of phase transition temperature by polarizing microscope; format: physicochemical; conditions: for TNi(° C.) Isotropic Phase Transition Point / Tsm—N(° C.) Sm—N Transition Point: during temperature increase; for Phase Transition Temperature Evaluation of Decrease: versus comparative compound with the same Ar and side chain portion of Formula (Ia)
Text: Here, the temperature at which the compound transitions from the smectic phase to the nematic phase may be easily measured by observation of the composition employing polarized light microscopy. For example, in the nematic phase, a schlieren texture specific to the nematic phase is observed, while the texture transitions to a focal conic fan texture in a smectic A phase. Therefore, the phase transition temperature can be measured by observing the textures with a polarizing microscope while increasing or decreasing the temperature.
The phase transition temperatures of the synthesized liquid crystal compounds of the Examples and Comparative Examples were observed using a polarizing microscope to evaluate the degrees of temperature decrease. Specifically, the compounds of the Examples were compared to the compounds of the Comparative Examples, which have different structures for the side chain portions thereof. That is, the phase transition temperature of a compound of a Comparative Example having Ar (the aromatic ring at the center of General Formula 1) in common with the Examples and a side chain portion represented by Formula (Ia) below was used as a reference. Evaluations of A through C were assigned according to the degree of temperature decrease from the reference phase transition temperature.
as §1
A: decrease in melting point or Sm-N (smectic-nematic) transition temperature is 20° C. or greater
B: decrease in melting point or Sm-N (smectic-nematic) transition temperature is 5° C. or greater and less than 20° C.
C: decrease in melting point or Sm-N (smectic-nematic) transition temperature is less than 5° C.
With respect to the phase transition temperature, the numerical value in parentheses represents the numerical value during temperature decrease, and other numerical values represent a numerical value during temperature increase.

SMILES | melting point | Solubility CPN wt % [1] | Solubility MEK wt % [1] | TNi(° C.) Isotropic Phase Transition Point [2] | Tsm—N(° C.) Sm—N Transition Point [2] | Solubility Evaluation [1] | Phase Transition Temperature Evaluation of Decrease [2]
N#CC(C#N)=C1Sc2c(OC(=O)[C@H]3CC[C@H](C(=O)Oc4ccc(CCOC(=O)CCCCCCCCC5CO5)cc4)CC3)ccc(OC(=O)[C@H]3CC[C@H](C(=O)Oc4ccc(CCOC(=O)CCCCCCCCC5CO5)cc4)CC3)c2S1 (some centres unmarked) [Compound I-15] | 127 °C | 25 wt % | 10 wt % | 190 °C | – | A (solubility improved twofold or greater in plural solvents or a single solvent) | A (decrease in melting point or Sm-N (smectic-nematic) transition temperature is 20 °C or greater)
C=CC(=O)OCCCCOc1ccc(C(=O)Oc2ccc(C(=O)Oc3ccc(OC(=O)c4ccc(OC(=O)c5ccc(OCCCCOC(=O)C=C)cc5)cc4)c4c3SC(=C(C#N)C#N)S4)cc2)cc1 [Ic-1] | 185 °C | <10 wt % | <5 wt % | >210^ ° C. | – | C | C (decrease in melting point or Sm-N (smectic-nematic) transition temperature is less than 5° C.)
C=CC(=O)OCCCCOC(=O)[C@H]1CC[C@H](C(=O)O[C@H]2CC[C@H](C(=O)Oc3ccc(OC(=O)[C@H]4CC[C@H](OC(=O)[C@H]5CC[C@H](C(=O)OCCCCOC(=O)C=C)CC5)CC4)c4c3SC(=C(C#N)C#N)S4)CC2)CC1 [Ib-1] | 170 °C | 10 wt % | <5 wt % | 206 °C | – | C | C (decrease in melting point or Sm-N (smectic-nematic) transition temperature is less than 5° C.)
C=C(C)C(=O)OCCNC(=O)OCCc1ccc(OC(=O)[C@H]2CC[C@H](C(=O)Oc3ccc(OC(=O)[C@H]4CC[C@H](C(=O)Oc5ccc(CCOC(=O)NCCOC(=O)C(=C)C)cc5)CC4)c4c3SC(=C(C#N)C#N)S4)CC2)cc1 [Compound I-9] | 130 °C | 20 wt % | 5 wt % | 220 °C | 158 °C | B (solubility was the same or improved up to twofold in plural solvents or a single solvent) | B (decrease in melting point or Sm-N (smectic-nematic) transition temperature is 5 °C or greater and less than 20° C.)
C=CC(=O)OCCCCCCOc1ccc(OC(=O)[C@H]2CC[C@H](C(=O)Oc3ccc(OC(=O)[C@H]4CC[C@H](C(=O)Oc5ccc(OCCCCCCOC(=O)C=C)cc5)CC4)c4c3SC(=C(C#N)C(=O)OCCC(C)(C)O)S4)CC2)cc1 [IIIa-7] | 106 °C | 40 wt % | 20 wt % | 157 °C | – | – | –

Continued, in another order:

melting point | Solubility CPN wt % [1] | Solubility MEK wt % [1] | TNi(° C.) Isotropic Phase Transition Point [2] | Tsm—N(° C.) Sm—N Transition Point [2] | SMILES | Solubility Evaluation [1] | Phase Transition Temperature Evaluation of Decrease [2]
95 °C | 40 wt % | 40 wt % | 99 °C | – | C=CC(=O)OCCOC(=O)CCC(=O)OCCc1ccc(OC(=O)[C@H]2CC[C@H](C(=O)Oc3cc(OCC)c(OC(=O)[C@H]4CC[C@H](C(=O)Oc5ccc(CCOC(=O)CCC(=O)OCCOC(=O)C=C)cc5)CC4)c4c3SC(=C(C#N)C#N)S4)CC2)cc1 [IV-10] | – | –
148 °C | 35 wt % | 15 wt % | 172 °C | – | C=CC(=O)OCCOC(=O)CCC(=O)OCCc1ccc(OC(=O)[C@H]2CC[C@H](C(=O)Oc3cc(C)c(OC(=O)[C@H]4CC[C@H](C(=O)Oc5ccc(CCOC(=O)CCC(=O)OCCOC(=O)C=C)cc5)CC4)c4c3SC(=C(C#N)C#N)S4)CC2)cc1 [IV-1] | A (solubility improved twofold or greater in plural solvents or a single solvent) | A (decrease in melting point or Sm-N (smectic-nematic) transition temperature is 20 °C or greater)
102 °C | 20 wt % | 10 wt % | 176 °C | 138 °C | C=CC(=O)OCCCCOC(=O)Cc1ccc(OC(=O)[C@H]2CC[C@H](C(=O)Oc3ccc(OC(=O)[C@H]4CC[C@H](C(=O)Oc5ccc(CC(=O)OCCCCOC(=O)C=C)cc5)CC4)c4c3SC(=C(C#N)C#N)S4)CC2)cc1 [II-8] | A (solubility improved twofold or greater in plural solvents or a single solvent) | A (decrease in melting point or Sm-N (smectic-nematic) transition temperature is 20 °C or greater)
116 °C | 15 wt % | 5 wt % | 210 °C | 122 °C | C=CC(=O)OCCOC(=O)Cc1ccc(OC(=O)[C@H]2CC[C@H](C(=O)Oc3ccc(OC(=O)[C@H]4CC[C@H](C(=O)Oc5ccc(CC(=O)OCCOC(=O)C=C)cc5)CC4)c4c3SC(=C(C#N)C#N)S4)CC2)cc1 [II-9] | B (solubility was the same or improved up to twofold in plural solvents or a single solvent) | A (decrease in melting point or Sm-N (smectic-nematic) transition temperature is 20 °C or greater)
